Values quoted from earlier work in US20130115246A1 (Lupin Atlantis Holdings, S.A., priority 2011, published 2013).

Conditions: in vivo

CC(C)(Oc1ccc(C(=O)c2ccc(Cl)cc2)cc1)C(=O)O [Fenofibric acid]
elimination half-life: about 20 hours
